Entries after “also recorded” stand apart in the source; their conditions may differ.
Key:
[1] = system: HCT116-(CA)13 cells; assay: Cell viability (MTT assay) with drug and antioxidant co-treatment; conditions: for effect on methotrexate-mediated cytotoxicity (in words): 25 nM methotrexate with NAC, GSH or vitamin C
Procedure: (§1) Cell viability was determined by the MTT assay. Briefly, the optical density of colored formazan converted from MTT by viable cells was determined as previously described [Chang et al., 2002] at 595 nm with an ELISA reader (Thermo Labsystems). Cell viability is expressed as the optical density value of drug-treated cells relative to that of solvent-treated cells, after subtracting the background from the medium.

[2] = system: HCT116-(CA)13 cells; conditions: for suppression of methotrexate-induced MSI: 25 nM methotrexate with 2.5 mM NAC, 250 μM vitamin C or 1.5 μM curcumin; for suppression of methotrexate-induced MSI / suppression of CCNU-induced MSI: 5 mM GSH; for suppression of CCNU-induced MSI: 50 μM CCNU with 2.5 mM NAC, 250 μM vitamin C, 1.5 μM curcumin or 150 μM eugenol
Procedure: After treatment, HCT116-(CA)13 cells in 96-well glass plates (Corning-Costar®) were fixed with 4% paraformaldehyde and nuclei were stained with 1 μg/ml Hoechst 33258. Fluorescent images of the cells were acquired at 100× magnification by ImageXpress^Micro system (Molecular Devices) and analyzed with MetaXpress® V3.1 software as described previously [Li et al., 2014]. The frequency of frameshift mutations of the (CA)13 microsatellite is expressed as the percentage of the DsRed^+GFP^+Hoechst^+ subpopulation in the GFP^+Hoechst^+ population.

[3] = system: HCT116+chr3-(CA)13 cells; assay: MSI analysis by high-content microscopy in MMR-proficient cells; format: cell-based, human; conditions: 3-day treatment (50 μM CCNU, 5 μM etoposide, 25 nM vinblastine), 3-day recovery; base line 0.35%
Procedure: (§2) Specified cells were seeded at 1×10^4 or 1×10^5 cells per well in 96-well or 12-well plates respectively. One day after seeding, the cells were treated in triplicates for 3 days with a tested drug in the presence or absence of an antioxidant at indicated concentrations. Subsequently, the drug and/or antioxidant were removed and cells were washed and recovered in fresh growth medium for 3 days before being subjected to analyses. […] On the other hand, PBS was used to make 0.5 M vitamin C stock, saline for making 0.5 M NAC and 0.1 M GSH stocks, and DMSO for making 10 mM curcumin and 10 mM eugenol. Prior to the experiments, PBS was used for diluting the drugs and antioxidants and the final solvent concentration was kept the same for all tested compounds, including untreated controls.

[4] = system: HCT116-(CA)13 cells; assay: Frameshift mutation (MSI) analysis by flow cytometry with dual-fluorescent reporter; conditions: for MSI induction (in words): HCT116 derivatives, single drug; for mutation frequency: 3-day treatment, 3-day recovery, untreated 0.46±0.04%
Procedure: as §2
At the end of treatment, adherent cells in 12-well plates were trypsinized and resuspended in PBS containing 1 mM EDTA, and filtered through a 40-μm strainer, and then subjected to flow cytometry (Quanta™ SC-MPL, Beckman Coulter). […] The frequency of frameshift mutations is expressed as the percentage of DsRed^+GFP^+ subpopulation in the GFP^+ cell population.

[5] = system: HCT116 cells; assay: Fluoresceinated PCR-based assay of endogenous microsatellites (Bethesda panel); format: cell-based, human; conditions: 3-day recovery
Procedure: Genomic DNA was isolated from HCT116 derivatives in 12-well plates with EasyPure Genomic DNA mini kit. The isolated DNA were amplified with fluoresceinated primers specific for the Bethesda panel of microsatellite [Boland et al., 1998] and selected coding microsatellites as described previously [Li et al., 2014]. Fluoresceinated PCR products were analyzed by the ABI 310 genetic analyzer, and electropherograms were generated with GeneScan Collection software (ABI).

[6] = system: HCT116+chr3 cells; assay: MTT assay in MMR-proficient cells; conditions: MMR-proficient HCT116+chr3, 1 μM oxaliplatin with 2-10 μM antioxidant, 3-day co-treatment
Procedure: as §1

[7] = system: HCT116-(CA)13 cells; assay: REDOX library screen by high-content microscopy (MSI frequency and cell numbers); format: cell-based, human; conditions: 1 μM oxaliplatin, additional concentrations, 3-day co-treatment, 3-day recovery
Procedure: The REDOX library (Cat# BML-2835, ENZO, USA) is composed of 84 compounds that were supplied at 10 mM in DMSO. HCT116-(CA)13 cells were seeded at 1×10^4 cells per well in 96-well glass plates containing 100 μl growth medium. One day after seeding, the cells were co-treated with 1 μM oxaliplatin and an antioxidant at specified concentrations in triplicate for three days, followed by a 3-day recovery in fresh growth medium without the drug and antioxidants.

[8] = system: HCT116 cells; assay: MTT assay, oxaliplatin co-treatment in MMR-deficient cells; conditions: MMR-deficient HCT116, 1 μM oxaliplatin with 2-10 μM antioxidant, 3-day co-treatment
Procedure: as §1

[9] = system: HCT116 cells; assay: Intracellular ROS assay (DCDHF-DA, flow cytometry); format: cell-based, human; conditions: 3-day treatment, 3-day recovery; 10 μM 5-FU, 25 nM methotrexate, 50 μM CCNU, 1 μM oxaliplatin
Procedure: Intracellular ROS levels were measured using an oxidation-sensitive 2′,7′-dichlorodihydrofluorescein diacetate (DCDHF-DA) probe, which can be oxidized to the fluorescent 2′,7′-dichloro-fluorescein (DCF) product. After treatment, HCT116 derivatives in 12-well plates were harvested, washed and resuspended in PBS containing 10 μM DCDHF-DA, followed by 30-min incubation at 37° C. in the dark before being subjected to flow cytometry (Quanta SC-MPL). For a ROS curve of H2O2, 2×10^5 HCT116 derivatives were detached, washed, and incubated with 10 μM DCDHF-DA for 30 min at 37° C., followed by flow cytometric analysis after 30-min exposure to different concentrations of H2O2. After excluding cell debris on the basis of electronic volume and side scatter, the fluorescence intensity of DCF was measured in fluorescence channel 1 of the flow cytometer (λex: 488 nm; λem: 525 nm). The ROS level is expressed as the mean fluorescence intensity (MFI) of DCF from 10,000 cells per sample.

[10] = 3-day treatment, 10 μM 5-FU, 5 μM etoposide, 25 nM vinblastine, 50 μM CCNU, 25 nM methotrexate, 1 μM oxaliplatin
[11] = 1-day treatment, 100 μM CCNU or 100 nM methotrexate
[12] = 5 μM etoposide with 250 μM vitamin C

Structure (SMILES): CC(=O)N[C@@H](CS)C(=O)O [NAC, N-acetylcysteine]
- effect on methotrexate-mediated cytotoxicity (in words) [1]: without affecting drug cytotoxicity
- effect on oxaliplatin-mediated cytotoxicity (in words) ([1]; 1 μM oxaliplatin with 2.5 mM NAC, 5 mM GSH or 150 μM eugenol): totally abolished
- decrease of CCNU-mediated cytotoxicity ([1]; 50 μM CCNU with 2.5 mM NAC or 5 mM GSH): approximately 25%
- suppression of methotrexate-induced MSI [2]: 34%

Structure (SMILES): CC[C@]1(O)C[C@@H]2CN(CCc3c([nH]c4ccccc34)[C@@](C(=O)OC)(c3cc4c(cc3OC)N(C)[C@H]3[C@@](O)(C(=O)OC)[C@H](OC(C)=O)[C@]5(CC)C=CCN6CC[C@]43[C@@H]65)C2)C1 [vinblastine]
- MSI frequency [3]: 2.10%
- MSI induction (in words) [4]: induced MSI
- instability of Bethesda panel microsatellite markers [5, 10]: destabilized the BAT26 microsatellite

Structure (SMILES): Cc1cc2c(C(C)C)c(O)c(O)c(C=O)c2c(O)c1-c1c(C)cc2c(C(C)C)c(O)c(O)c(C=O)c2c1O [gossypol, 7-(8-formyl-1,6,7-trihydroxy-3-methyl-5-propan-2-ylnaphthalen-2-yl)-2,3,8-trihydroxy-6-methyl-4-propan-2-ylnaphthalene-1-carbaldehyde]
- effect on oxaliplatin-mediated cytotoxicity [6]: enhanced oxaliplatin-mediated cytotoxicity in a concentration-dependent manner
- outcome of secondary screen: oxaliplatin-induced MSI and oxaliplatin-mediated cytotoxicity [7]: most promising antioxidants; also recorded: suppress oxaliplatin-induced MSI while enhancing oxaliplatin-mediated cytotoxicity
- effect on oxaliplatin-mediated cytotoxicity [8]: enhanced oxaliplatin-mediated cytotoxicity in a concentration-dependent manner

Structure (SMILES): CN(Cc1cnc2nc(N)nc(N)c2n1)c1ccc(C(=O)N[C@@H](CCC(=O)O)C(=O)O)cc1 [methotrexate, (2S)-2-[[4-[(2,4-diaminopteridin-6-yl)methyl-methylamino]benzoyl]amino] pentanedioic acid]
- intracellular ROS levels [9]: but not 25 nM methotrexate increased intracellular ROS levels
- MSI induction (in words) [4]: induced MSI
- instability of Bethesda panel microsatellite markers [5, 11]: caused the instability of BAT25 and/or BAT26 microsatellites
- instability of Bethesda panel microsatellite markers [5, 10]: failed to detect alterations

Structure (SMILES): COc1cc([C@@H]2c3cc4c(cc3[C@@H](O[C@@H]3O[C@@H]5CO[C@@H](C)O[C@H]5[C@H](O)[C@H]3O)[C@H]3COC(=O)[C@H]23)OCO4)cc(OC)c1O [etoposide, (5S,5aR,8aR,9R)-5-[[(2R,4aR,6R,7R,8R,8aS)-7,8-dihydroxy-2-methyl-4,4a,6,7,8,8a-hexahydropyrano[3,2-d][1,3]dioxin-6-yl]oxy]-9-(4-hydroxy-3,5-dimethoxyphenyl)-5a,6,8a,9-tetrahydro-5H-[2]benzofuro[6,5-f][1,3]benzodioxol-8-one]
- MSI frequency [3]: 3.74%
- instability of Bethesda panel microsatellite markers [5, 10]: destabilized the BAT26 microsatellite

Structure (SMILES): O=C1O[C@H]([C@@H](O)CO)C(O)=C1O [vitamin C]
- effect on methotrexate-mediated cytotoxicity (in words) [1]: without affecting drug cytotoxicity
- enhancement of etoposide-mediated cytotoxicity [1, 12]: ~10%
- effect on CCNU-mediated cytotoxicity (in words) ([1]; 50 μM CCNU with 250 μM vitamin C): without significantly affecting drug cytotoxicity
- suppression of methotrexate-induced MSI [2]: 12%
- suppression of etoposide-induced MSI [2, 12]: ~40%
- suppression of CCNU-induced MSI [2]: ~24%

Structure (SMILES): N#CC(=Cc1ccc(O)c(O)c1)C(=O)OC/C=C/c1ccccc1 (stereo in doubt) [CDC, [(E)-3-phenylprop-2-enyl] (Z)-2-cyano-3-(3,4-dihydroxyphenyl)prop-2-enoate]
- outcome of secondary screen: oxaliplatin-induced MSI and oxaliplatin-mediated cytotoxicity [7]: most promising antioxidants

Structure (SMILES): O=NN(CCCl)C(=O)NC1CCCCC1 [CCNU, 1-(2-chloroethyl)-3-cyclohexyl-1-nitrosourea]
- intracellular ROS levels [9]: generated the highest ROS level
- MSI frequency [3]: 1.26%
- MSI induction (in words) [4]: induced MSI
- alteration of D5S346 ([5]; 100 μM CCNU, 1-day treatment): 1-bp insertion in a non-repetitive region of D5S346
- instability of Bethesda panel microsatellite markers [5, 11]: caused the instability of BAT25 and/or BAT26 microsatellites
- instability of Bethesda panel microsatellite markers [5, 10]: failed to detect alterations

Structure (SMILES): C=CCc1ccc(O)c(OC)c1 [eugenol]
- suppression of vinblastine-induced MSI ([2]; 25 nM vinblastine with 150 μM eugenol): 40%
- suppression of CCNU-induced MSI [2]: approximately 55%

Structure (SMILES): O=c1cc(-c2ccccc2)oc2cc(O)c(O)c(O)c12 [baicalein, 5,6,7-trihydroxy-2-phenylchromen-4-one]
- outcome of secondary screen: oxaliplatin-induced MSI and oxaliplatin-mediated cytotoxicity [7]: most promising antioxidants

Structure (SMILES): N[C@@H](CCC(=O)N[C@@H](CS)C(=O)NCC(=O)O)C(=O)O [GSH, glutathione]
- suppression of methotrexate-induced MSI [2]: 13%

Structure (SMILES): O=c1[nH]cc(F)c(=O)[nH]1 [5-FU, 5-fluoro-1H-pyrimidine-2,4-dione]
- intracellular ROS levels [9]: increased intracellular ROS levels
- mutation frequency ([4]; 2.5 μM): 5.91±0.49%
- mutation frequency ([4]; 5 μM): 6.37±0.96%
- mutation frequency ([4]; 10 μM): 8.05±2.01%
- susceptibility of (CA)13 microsatellite to drug-induced mutations compared to (N)16 random sequence ([4]; 5-FU 2.5-10 μM, HCT116-(CA)13 vs HCT116-(N)16): 1.2-2.8 fold
- MSI induction (in words) [4]: induced MSI
- instability of Bethesda panel microsatellite markers [5, 10]: induced the instability of the BAT25 microsatellite

Structure (SMILES): COc1cc(/C=C/C(=O)CC(=O)/C=C/c2ccc(O)c(OC)c2)ccc1O [curcumin, (1E,6E)-1,7-bis(4-hydroxy-3-methoxyphenyl)hepta-1,6-diene-3,5-dione]
- effect on oxaliplatin-mediated cytotoxicity [6]: did not show a significant effect
- outcome of secondary screen: oxaliplatin-induced MSI and oxaliplatin-mediated cytotoxicity [7]: most promising antioxidants
- effect on oxaliplatin-mediated cytotoxicity [8]: did not show a significant effect
- suppression of methotrexate-induced MSI [2]: did not affect methotrexate-induced MSI
- suppression of CCNU-induced MSI [2]: approximately 55%

Structure (SMILES): Cc1cc(C2CCCCC2)n(O)c(=O)c1 [ciclopirox ethanolamine, 2-aminoethanol;6-cyclohexyl-1-hydroxy-4-methylpyridin-2-one]
- outcome of secondary screen: oxaliplatin-induced MSI and oxaliplatin-mediated cytotoxicity [7]: most promising antioxidants

Structure (SMILES): CCCCCCCCOC(=O)/C=C/c1ccc(O)c(O)c1 [n-octyl caffeate, Octyl 3-(3,4-dihydroxyphenyl)prop-2-enoate]
- outcome of secondary screen: oxaliplatin-induced MSI and oxaliplatin-mediated cytotoxicity [7]: most promising antioxidants

Structure (SMILES): N[C@@H]1CCCC[C@H]1N.O=C(O)C(=O)O.[Pt] [oxaliplatin, (1R,2R)-cyclohexane-1,2-diamine;oxalic acid;platinum]
- intracellular ROS levels [9]: intermediate ROS-generating abilities
- MSI induction (in words) [4]: strong MSI-inducing; also recorded: induced MSI
- instability of Bethesda panel microsatellite markers [5, 10]: alterations of four out of five microsatellite markers

Source: US20160022605A1, “METHODS FOR REDUCING MICROSATELLITE INSTABILITY INDUCED BY CHEMOTHERAPY AND METHODS FOR SCREENING ANTIOXIDANTS THAT SUPPRESS DRUG-INDUCED MICROSATELLITE INSTABILITY WHILE ENHANCING THE CYTOTOXICITY OF CHEMOTHERAPEUTIC AGENTS” (priority 2014, published 2016)
